{"source": "ChEMBL document CHEMBL1136464", "about": "“Array synthesis of novel lipodepsipeptide” (Bioorg Med Chem Lett, 2003)", "assay_type_in_all_cases": "functional", "key": {"[1]": {"tested_on": "Staphylococcus aureus", "experiment": "Antibacterial activity against methicillin-resistant staphylococcus aureus ATCC 43300 at 0 % serum"}, "[2]": {"tested_on": "Enterococcus faecalis", "experiment": "Antibacterial activity against Enterococcus faecalis ATCC 6569 at 10 % serum", "conditions": "ATCC 6569, Serum"}, "[3]": {"tested_on": "Enterococcus faecium", "experiment": "Antibacterial activity against Enterococcus faecium ATCC 49452 at 10 % serum", "conditions": "ATCC 49452, Serum"}, "[4]": {"tested_on": "Staphylococcus aureus", "experiment": "Antibacterial activity against methicillin susceptible staphylococcus aureus ATCC 29213 at 10 % serum"}, "[5]": {"tested_on": "Staphylococcus aureus", "experiment": "Antibacterial activity against methicillin-resistant staphylococcus aureus ATCC 43300 at 10 % serum"}, "[6]": {"tested_on": "Enterococcus faecalis", "experiment": "Antibacterial activity against Enterococcus faecalis ATCC 6569 at 0 % serum"}, "[7]": {"tested_on": "Enterococcus faecium", "experiment": "Antibacterial activity against Enterococcus faecium ATCC 49452 at 0 % serum"}, "[8]": {"tested_on": "Staphylococcus aureus", "experiment": "Antibacterial activity against methicillin susceptible staphylococcus aureus ATCC 29213 at 0 % serum"}, "[9]": {"species": "Mus musculus", "experiment": "Protective dose against methicillin-resistant staphylococcus aureus ATCC 43300 was determined in mice", "conditions": "read-out: PD50"}}, "data": [{"smiles": "CCCCCCCCCC(=O)N[C@@H](Cc1c[nH]c2ccccc12)C(=O)N[C@H](CC(N)=O)C(=O)N[C@@H](CCO)C(=O)N[C@@H]1C(=O)NCC(=O)N[C@@H](CCCNCc2cccc([N+](=O)[O-])c2)C(=O)N[C@@H](CC(=O)O)C(=O)N[C@H](C)C(=O)N[C@@H](CC(=O)O)C(=O)NCC(=O)N[C@H](CO)C(=O)N[C@@H]([C@H](C)CC(=O)O)C(=O)N[C@@H](CC(=O)c2ccccc2N)C(=O)O[C@@H]1C", "values": [{"measurement": "MIC", "setting": "[1]", "result": 0.78, "unit": "µg/mL"}, {"measurement": "MIC", "setting": "[2]", "result": 12.5, "unit": "µg/mL"}, {"measurement": "MIC", "setting": "[3]", "result": 12.5, "unit": "µg/mL"}, {"measurement": "MIC", "setting": "[4]", "result": 1.56, "unit": "µg/mL"}, {"measurement": "MIC", "setting": "[5]", "result": 1.56, "unit": "µg/mL"}, {"measurement": "MIC", "setting": "[6]", "result": 6.25, "unit": "µg/mL"}, {"measurement": "MIC", "setting": "[7]", "result": 6.25, "unit": "µg/mL"}, {"measurement": "MIC", "setting": "[8]", "result": 0.78, "unit": "µg/mL"}]}, {"smiles": "CCCCCCCCCC(=O)N[C@@H](Cc1c[nH]c2ccccc12)C(=O)N[C@H](CC(N)=O)C(=O)N[C@@H](CC(=O)O)C(=O)N[C@@H]1C(=O)NCC(=O)N[C@@H](CCCNCc2ccc(-c3ccccc3)cc2)C(=O)N[C@@H](CC(=O)O)C(=O)N[C@H](C)C(=O)N[C@@H](CC(=O)O)C(=O)NCC(=O)N[C@H](CO)C(=O)N[C@@H]([C@H](C)CC(=O)O)C(=O)N[C@@H](CC(=O)c2ccccc2N)C(=O)O[C@@H]1C", "values": [{"measurement": "MIC", "setting": "[1]", "result": 0.2, "unit": "µg/mL"}, {"measurement": "MIC", "setting": "[2]", "result": 12.5, "unit": "µg/mL"}, {"measurement": "MIC", "setting": "[3]", "result": 25, "unit": "µg/mL"}, {"measurement": "MIC", "setting": "[4]", "result": 3.13, "unit": "µg/mL"}, {"measurement": "ED50", "setting": "[9]", "result": 1.04, "unit": "mg/kg"}, {"measurement": "MIC", "setting": "[5]", "result": 1.56, "unit": "µg/mL"}, {"measurement": "MIC", "setting": "[6]", "result": 1.56, "unit": "µg/mL"}, {"measurement": "MIC", "setting": "[7]", "result": 1.56, "unit": "µg/mL"}, {"measurement": "MIC", "setting": "[8]", "result": 0.39, "unit": "µg/mL"}]}, {"smiles": "CCCCCCCCCC(=O)N[C@@H](Cc1c[nH]c2ccccc12)C(=O)N[C@H](CC(N)=O)C(=O)N[C@@H](CCO)C(=O)N[C@@H]1C(=O)NCC(=O)N[C@@H](CCCNCc2ccccc2[N+](=O)[O-])C(=O)N[C@@H](CC(=O)O)C(=O)N[C@H](C)C(=O)N[C@@H](CC(=O)O)C(=O)NCC(=O)N[C@H](CO)C(=O)N[C@@H]([C@H](C)CC(=O)O)C(=O)N[C@@H](CC(=O)c2ccccc2N)C(=O)O[C@@H]1C", "values": [{"measurement": "MIC", "setting": "[1]", "result": 0.78, "unit": "µg/mL"}, {"measurement": "MIC", "setting": "[2]", "result": 25, "unit": "µg/mL"}, {"measurement": "MIC", "setting": "[3]", "result": 25, "unit": "µg/mL"}, {"measurement": "MIC", "setting": "[4]", "result": 1.56, "unit": "µg/mL"}, {"measurement": "MIC", "setting": "[5]", "result": 0.78, "unit": "µg/mL"}, {"measurement": "MIC", "setting": "[6]", "result": 12.5, "unit": "µg/mL"}, {"measurement": "MIC", "setting": "[7]", "result": 12.5, "unit": "µg/mL"}, {"measurement": "MIC", "setting": "[8]", "result": 0.78, "unit": "µg/mL"}]}, {"smiles": "CCCCCCCCCC(=O)N[C@@H](Cc1c[nH]c2ccccc12)C(=O)N[C@H](CC(N)=O)C(=O)N[C@@H](CCO)C(=O)N[C@@H]1C(=O)NCC(=O)N[C@@H](CCCNCc2cccc(F)c2)C(=O)N[C@@H](CC(=O)O)C(=O)N[C@H](C)C(=O)N[C@@H](CC(=O)O)C(=O)NCC(=O)N[C@H](CO)C(=O)N[C@@H]([C@H](C)CC(=O)O)C(=O)N[C@@H](CC(=O)c2ccccc2N)C(=O)O[C@@H]1C", "values": [{"measurement": "MIC", "setting": "[1]", "result": 0.78, "unit": "µg/mL"}, {"measurement": "MIC", "setting": "[2]", "result": 12.5, "unit": "µg/mL"}, {"measurement": "MIC", "setting": "[3]", "result": 12.5, "unit": "µg/mL"}, {"measurement": "MIC", "setting": "[4]", "result": 1.56, "unit": "µg/mL"}, {"measurement": "MIC", "setting": "[5]", "result": 0.56, "unit": "µg/mL"}, {"measurement": "MIC", "setting": "[6]", "result": 6.25, "unit": "µg/mL"}, {"measurement": "MIC", "setting": "[7]", "result": 12.5, "unit": "µg/mL"}, {"measurement": "MIC", "setting": "[8]", "result": 0.78, "unit": "µg/mL"}]}, {"smiles": "CCCCCCCCCC(=O)N[C@@H](Cc1c[nH]c2ccccc12)C(=O)N[C@H](CC(N)=O)C(=O)N[C@@H](CCO)C(=O)N[C@@H]1C(=O)NCC(=O)N[C@@H](CCCNCc2nccs2)C(=O)N[C@@H](CC(=O)O)C(=O)N[C@H](C)C(=O)N[C@@H](CC(=O)O)C(=O)NCC(=O)N[C@H](CO)C(=O)N[C@@H]([C@H](C)CC(=O)O)C(=O)N[C@@H](CC(=O)c2ccccc2N)C(=O)O[C@@H]1C", "values": [{"measurement": "MIC", "setting": "[1]", "result": 0.78, "unit": "µg/mL"}, {"measurement": "MIC", "setting": "[2]", "result": 12.5, "unit": "µg/mL"}, {"measurement": "MIC", "setting": "[3]", "result": 6.25, "unit": "µg/mL"}, {"measurement": "MIC", "setting": "[4]", "result": 1.56, "unit": "µg/mL"}, {"measurement": "MIC", "setting": "[5]", "result": 0.78, "unit": "µg/mL"}, {"measurement": "MIC", "setting": "[6]", "result": 6.25, "unit": "µg/mL"}, {"measurement": "MIC", "setting": "[7]", "result": 6.24, "unit": "µg/mL"}, {"measurement": "MIC", "setting": "[8]", "result": 0.78, "unit": "µg/mL"}]}, {"smiles": "CCCCCCCCCC(=O)N[C@@H](Cc1c[nH]c2ccccc12)C(=O)N[C@H](CC(N)=O)C(=O)N[C@@H](CCO)C(=O)N[C@@H]1C(=O)NCC(=O)N[C@@H](CCCNCc2ccc(S(=O)(=O)NCc3ccc(F)cc3)cc2)C(=O)N[C@@H](CC(=O)O)C(=O)N[C@H](C)C(=O)N[C@@H](CC(=O)O)C(=O)NCC(=O)N[C@H](CO)C(=O)N[C@@H]([C@H](C)CC(=O)O)C(=O)N[C@@H](CC(=O)c2ccccc2N)C(=O)O[C@@H]1C", "values": [{"measurement": "MIC", "setting": "[1]", "result": 0.39, "unit": "µg/mL"}, {"measurement": "MIC", "setting": "[2]", "result": 3.13, "unit": "µg/mL"}, {"measurement": "MIC", "setting": "[3]", "result": 6.25, "unit": "µg/mL"}, {"measurement": "MIC", "setting": "[4]", "result": 1.56, "unit": "µg/mL"}, {"measurement": "MIC", "setting": "[5]", "result": 0.78, "unit": "µg/mL"}, {"measurement": "MIC", "setting": "[6]", "result": 1.56, "unit": "µg/mL"}, {"measurement": "MIC", "setting": "[7]", "result": 1.56, "unit": "µg/mL"}, {"measurement": "MIC", "setting": "[8]", "result": 0.39, "unit": "µg/mL"}]}, {"smiles": "CCCCCCCCCC(=O)N[C@@H](Cc1c[nH]c2ccccc12)C(=O)N[C@H](CC(N)=O)C(=O)N[C@@H](CCO)C(=O)N[C@@H]1C(=O)NCC(=O)N[C@@H](CCCNCc2ccc(F)cc2F)C(=O)N[C@@H](CC(=O)O)C(=O)N[C@H](C)C(=O)N[C@@H](CC(=O)O)C(=O)NCC(=O)N[C@H](CO)C(=O)N[C@@H]([C@H](C)CC(=O)O)C(=O)N[C@@H](CC(=O)c2ccccc2N)C(=O)O[C@@H]1C", "values": [{"measurement": "MIC", "setting": "[1]", "result": 0.78, "unit": "µg/mL"}, {"measurement": "MIC", "setting": "[2]", "result": 12.5, "unit": "µg/mL"}, {"measurement": "MIC", "setting": "[3]", "result": 25, "unit": "µg/mL"}, {"measurement": "MIC", "setting": "[4]", "result": 3.13, "unit": "µg/mL"}, {"measurement": "MIC", "setting": "[5]", "result": 0.78, "unit": "µg/mL"}, {"measurement": "MIC", "setting": "[6]", "result": 6.25, "unit": "µg/mL"}, {"measurement": "MIC", "setting": "[7]", "result": 6.25, "unit": "µg/mL"}, {"measurement": "MIC", "setting": "[8]", "result": 1.56, "unit": "µg/mL"}]}, {"smiles": "CCCCCCCCCC(=O)N[C@@H](Cc1c[nH]c2ccccc12)C(=O)N[C@H](CC(N)=O)C(=O)N[C@@H](CCO)C(=O)N[C@@H]1C(=O)NCC(=O)N[C@@H](CCCNCc2ccccc2N)C(=O)N[C@@H](CC(=O)O)C(=O)N[C@H](C)C(=O)N[C@@H](CC(=O)O)C(=O)NCC(=O)N[C@H](CO)C(=O)N[C@@H]([C@H](C)CC(=O)O)C(=O)N[C@@H](CC(=O)c2ccccc2N)C(=O)O[C@@H]1C", "values": [{"measurement": "MIC", "setting": "[1]", "result": 0.78, "unit": "µg/mL"}, {"measurement": "MIC", "setting": "[2]", "result": 25, "unit": "µg/mL"}, {"measurement": "MIC", "setting": "[3]", "result": 6.25, "unit": "µg/mL"}, {"measurement": "MIC", "setting": "[4]", "result": 3.13, "unit": "µg/mL"}, {"measurement": "MIC", "setting": "[5]", "result": 1.56, "unit": "µg/mL"}, {"measurement": "MIC", "setting": "[6]", "result": 6.25, "unit": "µg/mL"}, {"measurement": "MIC", "setting": "[7]", "result": 6.25, "unit": "µg/mL"}, {"measurement": "MIC", "setting": "[8]", "result": 0.78, "unit": "µg/mL"}]}]}
